Earlier results on two molecules are cited in patent US7151091B2, “Compositions and methods for preventing infection” (The Johns Hopkins University, priority 2002, dated 2006).

The structures appear in SMILES notation.

For series [1] the following is noted: concentrations ranging from 5–100 mM.
Series [2] concerns human immunodeficiency virus (HIV). The following applies: given to HIV-infected pregnant women before and during childbirth and to their infants after childbirth.

Take `CC(O)COC[C@H]1O[C@@H]2O[C@H]3[C@H](O)[C@@H](O)[C@@H](O[C@H]4[C@H](O)[C@@H](O)[C@@H](O[C@H]5[C@H](O)[C@@H](O)[C@@H](O[C@H]6[C@H](O)[C@@H](O)[C@@H](O[C@H]7[C@H](O)[C@@H](O)[C@@H](O[C@H]8[C@H](O)[C@@H](O)[C@@H](O[C@H]1[C@H](O)[C@H]2O)O[C@@H]8COCC(C)O)O[C@@H]7COCC(C)O)O[C@@H]6COCC(C)O)O[C@@H]5COCC(C)O)O[C@@H]4COCC(C)O)O[C@@H]3COCC(C)O` (stereo partly drawn) [2-OH-propyl-beta-cyclodextrin]: the “removal of membrane cholesterol” value in series [1] is “removes membrane cholesterol within minutes”.
`Cc1cn([C@H]2C[C@H](N=[N+]=[N-])[C@@H](CO)O2)c(=O)[nH]c1=O` [zidovudine]: the “reduction of HIV transmission” value in series [2] is listed as “two-thirds”.
